This note sets out measurements from patent US20110201608A1 (BOEHRINGER INGELHEIM INTERNATIONAL GMBH, priority 2008, published 2011).

Structures are written as SMILES.

The target of this experiment is T1, Recombinant human Syk (GST-Syk kinase fusion protein) (Homo sapiens, UniProt P43405).
T1 construct: made in house
Briefly: Syk Kinase Test (Kinase Glo Luminescence Kinase test). The format is biochemical. To be noted: 1 μM test substance; negative control (no kinase) = 100% inhibition, positive control (no test substance) = 0% inhibition. The method, then: The catalytic activity of the GST-Syk kinase fusion protein was determined using the Kinase Glo® Luminescence Kinase test of Messrs Promega. In this homogeneous test the amount of ATP remaining after the kinase reaction has been carried out is quantified by a luciferin-luciferase reaction using luminescence. The luminescence signal obtained correlates with the amount of ATP still present and thus correlates inversely with the activity of the protein kinase.
The test substances were dissolved in 100% DMSO at a concentration of 10 mM and diluted in DMSO to a concentration of 1 mM. […] GST-Syk was diluted to 6.0 nM in the test buffer and 10 μl of this dilution were used in the kinase test (final concentration of Syk=4 nM in a total volume of 15 μl).
Positive controls are the reaction mixtures that contain no test substance; negative controls are reaction mixtures that contain no kinase.
After 60 minutes, 10 μl Kinase-Glo® solution (Promega, Cat. # V6712) (heated to ambient temperature) are added to each well and incubation is continued for a further 15 minutes at ambient temperature.
The output file of the “MicroBeta TRILUX” is a text file that contains the well number and measurements obtained. […] Then from this the % inherent value for the measurement of each substance concentration was calculated using an “MS-Excel-VB macro”. […] The IC50 values were calculated from the % inhibition values using “GraphPadPrism” software (Version 5) (GraphPad Software Inc.).
A general note: Kinase-Glo reads ATP consumption through a luciferase reaction.
As for `NC(=O)c1cccnc1Nc1nc(-c2ccc(N3CCOCC3)cc2)cc2ncccc12` [Example 2, 2-[7-(4-morpholin-4-yl-phenyl)-[1,6]naphthyridin-5-ylamino]-nicotinamide], the “% INHB SYK at 1 μM” value was 72.6%. The result for `c1ccc(-c2nc(-c3ccc(N4CCOCC4)cc3)cc3ncccc23)cc1` [Example 132, (4-(5-phenyl-1,6-naphthyridin-7-yl)phenyl)morpholine] reads 55.2%; that for `C#Cc1nc(-c2ccc(N3CCOCC3)cc2)cc2ncccc12` [Example 142, (4-(5-ethynyl-[1,6]naphthyridin-7-yl)phenyl)morpholine], 70.3%. Take `O[C@H]1CC[C@@H](Nc2nc(-c3ccc(N4CCOCC4)cc3)cc3ncccc23)CC1` [Example 62, 4-[7-(4-morpholin-4-yl-phenyl)-[1,6]naphthyridin-5-ylamino]-cyclohexanol]: the “% INHB SYK at 1 μM” value came to 76.8%.

Take `CC(=O)N[C@H]1CC[C@@H](Nc2nc(-c3ccc(N4CCOCC4)cc3)cc3ncccc23)CC1` [Example 113, N-{4-[7-(4-morpholin-4-yl-phenyl)-[1,6]naphthyridin-5-ylamino]-cyclohexyl}-acetamide]: the “% INHB SYK at 1 μM” value is recorded as 94.7%. For `NC(=O)N1CCN(c2nc(-c3ccc(N4CCOCC4)cc3)cc3ncccc23)CC1` [Example 98, 4-[7-(4-morpholin-4-yl-phenyl)-[1,6]naphthyridin-5-yl]-piperazine-1-carboxylic acid amide], the “% INHB SYK at 1 μM” value is 86.8%. Take `CCc1nc(-c2ccc(N3CCOCC3)cc2)cc2ncccc12` [Example 140, (4-(5-ethyl-[1,6]naphthyridin-7-yl)phenyl)morpholine]: the “% INHB SYK at 1 μM” value is on record as 43.3%. For the compound `c1cnc2cc(-c3ccc(N4CCOCC4)cc3)nc(Nc3ccc4cn[nH]c4c3)c2c1` [Example 1, 5-[(1H-indazol-6-yl)amino]-7-(4-morpholinophenyl)-[1,6]naphthyridine], the “% INHB SYK at 1 μM” value stood at 82.0%. The value for `Cc1cc(-c2cc3ncccc3c(OC[C@H]3CCCNC3)n2)ccc1N1CCOCC1` [Example 66, (S)-4-(2-methyl-4-(5-(piperidine-3-ylmethoxy)-[1,6]naphthyridin-7-yl)phenyl)morpholine] was 102.8%; that for `NC(=O)C1CCN(c2nc(-c3ccc(N4CCOCC4)cc3)cc3ncccc23)C1` (stereo not shown) [Example 107, 1-[7-(4-morpholin-4-yl-phenyl)-[1,6]naphthyridin-5-yl]-pyrrolidine-3-carboxylic acid amide] was 95.3%; that for `COc1cc(-c2cc3ncccc3c(NC[C@@H]3CCNC3)n2)ccc1N1CCOCC1` [Example 10] was 98.6%. For the compound `OCCCCOc1nc(-c2ccc(N3CCOCC3)cc2)cc2ncccc12` [Example 4, 4-[7-(4-morpholinophenyl)-[1,6]naphthyridin-5-yloxy]-butan-1-ol], the “% INHB SYK at 1 μM” value is 94.4%. Take `OCC#Cc1nc(-c2ccc(N3CCOCC3)cc2)cc2ncccc12` [Example 82, 3-[7-(4-morpholin-4-yl-phenyl)-[1,6]naphthyridin-5-yl]-prop-2-yn-1-ol]: the “% INHB SYK at 1 μM” value stood at 87.1%. Turning to `CCOc1nc(-c2ccc(N3CCOCC3)cc2)cc2ncccc12` [Example 79, 5-Ethoxy-7-(4-morpholin-4-yl-phenyl)-[1,6]naphthyridine], the “% INHB SYK at 1 μM” value stood at 82.9%. Turning to `CNc1nc(-c2ccc(N3CCOCC3)cc2)cc2ncccc12` [Example 3], the “% INHB SYK at 1 μM” value came to 101.8%.

As for `c1cnc2cc(-c3ccc(N4CCOCC4)cc3)nc(NCC3CNCCO3)c2c1` (stereo not shown) [Example 63], the “% INHB SYK at 1 μM” value came out at 85.4%.

On to `CCNC(=O)NC1CN(c2nc(-c3ccc(N4CCN(C)CC4)cc3)cc3ncccc23)C1` [Example 92, 1-ethyl-3-(1-{7-[4-(4-methyl-piperazin-1-yl)-phenyl]-[1,6]naphthyridin-5-yl}-azetidin-3-yl)-urea], for which the “% INHB SYK at 1 μM” value came to 77.3%. The result for `CN[C@H]1CC[C@@H](Nc2nc(-c3ccc(N4CCOCC4)cc3)cc3ncccc23)CC1` [Example 9, N-methyl-N′-[7-(4-morpholin-4-yl-phenyl)-[1,6]naphthyridin-5-yl]-cyclohexane-1,4-diamine] reads 86.7%; that for `CCNC(=O)N1CCCC1CNc1nc(-c2ccc(N3CCN(C)CC3)cc2)cc2ncccc12` (stereo not shown) [Example 93, 2-({7-[4-(4-methyl-piperazin-1-yl)-phenyl]-[1,6]naphthyridin-5-ylamino}-methyl)-pyrrolidin-1-carboxylic acid ethylamide], 91.5%.
